Experimental data taken from patent US9512107B2, “Therapeutically active compositions and their methods of use” (Agios Pharmaceuticals, Inc., priority 2012, dated 2016).
Residue numbers refer to the chain shown, from its start.

What was measured:
[1] = molecular target: T1, IDH2 R172K (Homo sapiens, UniProt P48735, R172K); assay: IDH2 R172K enzymatic assay (NADPH cofactor depletion, diaphorase/resazurin readout); type: biochemical; conditions: read-out: Enz R172K
T1 sequence (P48735 40-452 R172K): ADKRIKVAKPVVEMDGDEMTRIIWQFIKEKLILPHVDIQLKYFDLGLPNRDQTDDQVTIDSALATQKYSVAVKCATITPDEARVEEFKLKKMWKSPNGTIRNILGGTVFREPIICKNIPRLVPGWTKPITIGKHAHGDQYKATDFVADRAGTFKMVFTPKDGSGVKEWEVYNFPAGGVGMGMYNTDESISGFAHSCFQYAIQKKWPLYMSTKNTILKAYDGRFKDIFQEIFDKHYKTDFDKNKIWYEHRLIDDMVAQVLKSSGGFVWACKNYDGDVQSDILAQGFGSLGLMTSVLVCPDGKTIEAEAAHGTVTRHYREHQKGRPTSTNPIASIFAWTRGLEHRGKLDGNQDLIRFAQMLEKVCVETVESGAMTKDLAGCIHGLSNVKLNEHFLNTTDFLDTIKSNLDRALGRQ
Procedure, shortened: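 Test compounds are incubated with the mutant enzyme for one hour at ambient temperature. A substrate mix of 50 μM NADPH plus 6.3 mM α-KG initiates turnover, which proceeds for one hour. Diaphorase and resazurin then halt the reaction by depleting the cofactor and convert the remaining NADPH into a fluorescent signal.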

[2] = molecular target: T2, IDH2 R140Q (Homo sapiens, UniProt P48735, R140Q); assay: IDH2 R140Q enzymatic assay (cofactor depletion, similar format); type: biochemical; conditions: read-out: Enz R140Q
T2 sequence (P48735 40-452 R140Q): T1 sequence (P48735 40-452 R172K) with R101Q, K133R

[3] = test system: U87MG pLVX-IDH2 R140Q-neo cells; assay: U87MG pLVX-IDH2 R140Q-neo cell based assay, 2-HG in media by LC-MS at 48 hours; conditions: Homo sapiens, U-87 MG
Procedure, shortened: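 U87MG cells stably expressing IDH2 R140Q were seeded overnight, then exposed to compound at 0.2% final DMSO at 37 °C, 5% CO2. 2-HG in the medium was quantified by LC-MS at 48 h. Growth inhibition was read by CellTiter-Glo luminescence at 72 h.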

Structure (SMILES) | IC50 [1] [nM] | IC50 [2] [nM] | IC50 [3] [nM]
CC(C)Nc1nc(Nc2cccc(S(C)(=O)=O)c2)nc(-c2nc(C(F)(F)F)ccc2F)n1 [Compound 484, 6-(3-fluoro-6-(trifluoromethyl)pyridin-2-yl)-N2-isopropyl-N4-(3-(methylsulfonyl)phenyl)-1,3,5-triazine-2,4-diamine] | 100 to 1000 | 100 to 1000 | < 100
CC(C)Nc1nc(Nc2ccnc(C(C)(C)O)c2)nc(-c2cccc(C(F)(F)F)n2)n1 [Compound 496, 2-{4-[4-Isopropylamino-6-(6-trifluoromethyl-pyridin-2-yl)-[1,3,5]triazin-2-ylamino]-pyridin-2-yl}-propan-2-ol] | < 100 | 100 to 1000 | < 100
CC(C)Nc1nc(Nc2cccc(S(=O)(=O)NCC3CC3)c2)nc(-c2cccc(Cl)n2)n1 [Compound 497, 3-[4-(6-Chloro-pyridin-2-yl)-6-isopropylamino-[1,3,5]triazin-2-ylamino]-N-cyclopropylmethyl-benzenesulfonamide] | 100 to 1000 | 100 to 1000 | < 100
CC(C)(C)CNc1nc(Nc2cncc(C#N)c2)nc(-c2cccc(Cl)n2)n1 [Compound 498, 5-[4-(6-Chloro-pyridin-2-yl)-6-(2,2-dimethyl-propylamino)-[1,3,5]triazin-2-ylamino]-nicotinonitrile] | 1000 to 10000 | 100 to 1000 | 100 to 1000
COCC(C)Nc1nc(Nc2ccnc(C(F)(F)F)c2)nc(-c2cccc(Cl)n2)n1 (stereo not drawn) [Compound 499, 6-(6-Chloro-pyridin-2-yl)-N-(2-methoxy-1-methyl-ethyl)-N′-(2-trifluoromethyl-pyridin-4-yl)-[1,3,5]triazine-2,4-diamine] | < 100 | 100 to 1000 | < 100
Cc1cc(Nc2nc(NC(C)C)nc(-c3cccc(C(F)(F)F)n3)n2)cnn1 [Compound 501, N-Isopropyl-N′-(6-methyl-pyridazin-4-yl)-6-(6-trifluoromethyl-pyridin-2-yl)-[1,3,5]triazine-2,4-diamine] | 1000 to 10000 | 100 to 1000 | 100 to 1000

The remaining lines, values ahead:

IC50 [1] [nM] | IC50 [2] [nM] | IC50 [3] [nM] | Structure (SMILES)
100 to 1000 | 100 to 1000 | < 100 | CC(C)Nc1nc(Nc2cc(F)cc(F)c2)nc(-c2cc(Cl)cc(N)n2)n1 [Compound 485, 6-(6-amino-4-chloropyridin-2-yl)-N^2-(3,5-difluorophenyl)-N^4-isopropyl-1,3,5-triazine-2,4-diamine]
< 100 | 100 to 1000 | < 100 | Nc1cccc(-c2nc(NCC(F)(F)F)nc(Nc3cc(F)cc(F)c3)n2)n1 [Compound 491, 6-(6-aminopyridin-2-yl)-N2-(3,5-difluorophenyl)-N4-(2,2,2-trifluoroethyl)-1,3,5-triazine-2,4-diamine]
< 100 | 100 to 1000 | < 100 | CC(C)Nc1nc(Nc2cccc(F)c2)nc(-c2cccc(N)n2)n1 [Compound 492, 6-(6-aminopyridin-2-yl)-N2-(3-fluorophenyl)-N4-isopropyl-1,3,5-triazine-2,4-diamine]
< 100 | 100 to 1000 | < 100 | CC(C)(CO)CNc1nc(Nc2ccnc(C(F)(F)F)c2)nc(-c2cccc(Cl)n2)n1 [Compound 495, 3-[4-(6-Chloro-pyridin-2-yl)-6-(2-trifluoromethyl-pyridin-4-ylamino)-[1,3,5]triazin-2-ylamino]-2,2-dimethyl-propan-1-ol]
< 100 | 100 to 1000 | < 100 | CC(C)(O)CNc1nc(Nc2ccnc(F)c2)nc(-c2cccc(C(F)(F)F)n2)n1 [Compound 500, 1-[4-(2-Fluoro-pyridin-4-ylamino)-6-(6-trifluoromethyl-pyridin-2-yl)-[1,3,5]triazin-2-ylamino]-2-methyl-propan-2-ol]
< 100 | 1000 to 10000 | < 100 | CC(C)Nc1nc(Nc2cncc(F)c2)nc(-c2cccc(C(F)(F)F)n2)n1 [Compound 503, N-(5-Fluoro-pyridin-3-yl)-N′-isopropyl-6-(6-trifluoromethyl-pyridin-2-yl)-[1,3,5]triazine-2,4-diamine]
